Source: US20080280891A1, “Anti-cancer agents and uses thereof” (Locus Pharmaceuticals, Inc., priority 2006, published 2008)
pIC50: −log10 of the molar value.

Key:
Format in all cases: cell-based
[1] = tested on: MCF-7 breast cancer cells; test: Cell cycle assay (Example 164), G2/M block in MCF-7 cells; settings: Homo sapiens, MCF7; 0.1 μM, 24 h, flow cytometry (PI), Table 4
Procedure: (§1) The adherent MCF-7 breast cancer cells and NCI-H522 non small cell lung cancer cells were grown and maintained in EMEM cell culture media containing 10% fetal calf serum.
(§2) Cells were allowed to adhere for 24 hrs. After adherence, cell culture media was changed to that containing 0.5% FCS. Thirty minutes post-media change, test compounds were added at a concentration of either 1.0 or 0.1 μM (as specified in the Tables). Twenty-four hours after test agent addition, cells were analyzed for cell cycle status as described below.
(§3) Cell cycle status was analyzed by flow cytometry. Briefly, cells were collected and washed with FACs buffer (Pharmingen) and resuspended and fixed in 1 mL of 80% ethanol for 1 hr. Cells were washed with FACs buffer and resuspended in propidium iodide(PI)/RNase staining buffer (Pharmingen). PI is a fluorescent dye that labels nucleic acids such as DNA. The fluorescence within a cell (in the presence of PI) is proportional to the amount of DNA within a cell. The cell content of DNA is an indicator of status in the cell cycle. […] Cells in the S phase have DNA content that lies between these extremes.
(§4) For testing of cell cycle effects of test agents the percentage of cells within the G1 and G2/M phase were measured.

[2] = tested on: NCI-H522 non small cell lung cancer cells; test: Cell cycle assay (Example 164), G2/M block in NCI-H522 cells; settings: Homo sapiens; for activation at 0.1 µM: 24 h, flow cytometry (PI), Table 4
Procedure: as §1, §2, §3, §4

[3] = tested on: Jurkat T-cell leukemic cells; test: Cell cycle assay (Example 163), G2/M block in Jurkat cells; settings: Homo sapiens, Jurkat, 24 h, flow cytometry (PI), Table 2
Procedure: (§5) MCF-7 breast cancer cells and Jurkat T-cell leukemic cells were grown (and maintained) in EMEM and RPMI media, respectively, containing 10% fetal calf serum.
Test agents were added a concentration of 0.1 μM. Twenty-fours after test agent addition, cells were analyzed for cell cycle status as described below.
as §3, with “indices” for “indicator”
as §4

[4] = tested on: MCF-7 breast cancer cells; test: Cell cycle assay (Example 163), G2/M block in MCF-7 cells; settings: Homo sapiens, MCF7, 24 h, flow cytometry (PI), Table 2
Procedure: as §5
as §2, with “1 μM. Twenty-fours” for “either 1.0 or 0.1 μM (as specified in the Tables). Twenty-four hours”
as §3, with “indices” for “indicator”
as §4

pIC50 ([2]; H522, footnotes * and ** of Table 4, read-out: IC50 (footnote mark in H522 G2/M Block)) | Structure (SMILES) | activation at 0.1 µM [1] | activation at 0.1 µM [2] | activation at 0.1 µM [3] | activation at 1 µM [4]
– | CC(=O)Nc1cc(C(=O)c2cc(C)nc(N(C)C)c2)cc(-c2cccc3[nH]ccc23)c1 [N-[3-(2-Dimethylamino-6-methyl-pyridine-4-carbonyl)-5-(1H-indol-4-yl)-phenyl]-acetamide] | ≥ 50% | ≥ 50% | – | –
– | COC(=O)Nc1cc(-c2nc3ccccc3o2)cc(-c2cccc3[nH]ccc23)c1 [[3-Benzoxazol-2-yl-5-(1H-indol-4-yl)-phenyl]-carbamic acid methyl ester] | ≥ 50% | ≥ 50% | – | –
– | COC(=O)Nc1cc(Nc2cccnc2)cc(-c2cccc3[nH]ccc23)c1 [[3-(1H-Indol-4-yl)-5-(pyridin-3-ylamino)-phenyl]-carbamic acid methyl ester] | – | – | < 50% | ≥ 50%
– | N#Cc1ccc(Nc2cc(O)cc(-c3cccc4[nH]ccc34)c2)cn1 [5-[3-Hydroxy-5-(1H-indol-4-yl)-phenylamino]-pyridine-2-carbonitrile] | – | – | ≥ 50% | ≥ 50%
– | CC(=O)Nc1cc(-c2ccc(Cl)nc2)cc(-c2cccc3[nH]ccc23)c1 [N-[3-(6-Chloro-pyridin-3-yl)-5-(1H-indol-4-yl)-phenyl]-acetamide] | – | ≥ 50% | – | –
– | O=C(c1cccnc1)c1cc(O)cc(-n2ccc3cc(F)ccc32)c1 [[3-(5-Fluoro-indol-1-yl)-5-hydroxy-phenyl]-pyridin-3-yl-methanone] | – | – | ≥ 50% | ≥ 50%
– | CC(=O)Nc1cc(C(=O)c2ccncc2)cc(-c2cccc3[nH]ccc23)c1 [N-[3-(1H-Indol-4-yl)-5-(pyridine-4-carbonyl)-phenyl]-acetamide] | – | – | ≥ 50% | ≥ 50%
– | O=C(c1cccnc1)c1cc(-c2cccc3[nH]ccc23)ccc1O [[2-Hydroxy-5-(1H-indol-4-yl)-phenyl]-pyridin-3-yl-methanone] | – | – | ≥ 50% | ≥ 50%
– | CC(=O)Nc1cc(-c2nc3ncccc3o2)cc(-c2cccc3[nH]ccc23)c1 [N-[3-(1H-Indol-4-yl)-5-oxazolo[4,5-b]pyridin-2-yl-phenyl]-acetamide] | – | – | < 50% | ≥ 50%
– | CC(=O)Nc1cc(Br)cc(C(=O)c2cccnc2)c1 [N-[3-Bromo-5-(pyridine-3-carbonyl)-phenyl]-acetamide] | – | – | ≥ 50% | ≥ 50%
– | Oc1cc(Nc2cccnc2)cc(-c2cccc3c2OCO3)c1 [3-Benzo[1,3]dioxol-4-yl-5-(pyridin-3-ylamino)-phenol] | – | – | ≥ 50% | ≥ 50%
– | COC(=O)c1cc(Nc2cccnc2)cc(-c2cccc3[nH]ccc23)c1 [3-(1H-Indol-4-yl)-5-(pyridin-3-ylamino)-benzoic acid methyl ester] | – | – | ≥ 50% | ≥ 50%
– | CC(=O)Nc1cc(-c2ccnc(Cl)c2)cc(-c2cccc3[nH]ccc23)c1 [N-[3-(2-Chloro-pyridin-4-yl)-5-(1H-indol-4-yl)-phenyl]-acetamide] | – | ≥ 50% | – | –
– | COc1ccc(C(=O)c2cc(O)cc(-c3cccc4[nH]ccc34)c2)cn1 [[3-Hydroxy-5-(1H-Indol-4-yl)-phenyl]-(6-methoxy-pyridin-3-yl)-methanone] | – | – | ≥ 50% | ≥ 50%
– | Oc1cc(Nc2ccccc2)cc(-c2cccc3[nH]ccc23)c1 [3-(1H-Indol-4-yl)-5-phenylamino-phenol] | – | – | ≥ 50% | ≥ 50%
– | COc1cc(C(=O)c2cc(N)cc(-c3cccc4[nH]ccc34)c2)ccn1 [[3-Amino-5-(1H-indol-4-yl)-phenyl]-(2-methoxy-pyridin-4-yl)-methanone] | – | – | ≥ 50% | ≥ 50%
– | NC(=O)c1ccc(Nc2cc(O)cc(-c3cccc4[nH]ccc34)c2)cn1 [5-[3-Hydroxy-5-(1H-indol-4-yl)-phenylamino]-pyridine-2-carboxylic acid amide] | – | – | ≥ 50% | ≥ 50%

pIC50 ([2]; H522, footnotes * and ** of Table 4, read-out: IC50 (footnote mark in H522 G2/M Block)) | Structure (SMILES) | activation at 0.1 µM [1] | activation at 0.1 µM [2] | activation at 0.1 µM [3] | activation at 1 µM [4]
– | CS(=O)(=O)Nc1cc(C(=O)c2ccncc2)cc(-c2cccc3[nH]ccc23)c1 [N-[3-(1H-Indol-4-yl)-5-(pyridine-4-carbonyl)-phenyl]-methanesulfonamide] | – | – | ≥ 50% | ≥ 50%
– | NC(=O)c1cc(Nc2cccnc2)cc(-c2cccc3[nH]ccc23)c1 [3-(1H-Indol-4-yl)-5-(pyridin-3-ylamino)-benzamide] | – | – | ≥ 50% | ≥ 50%
– | O=COCCOCc1ncccc1Nc1cc(O)cc(-c2cccc3[nH]ccc23)c1 [Formic acid 2-{3-[3-hydroxy-5-(1H-indol-4-yl)-phenylamino]-pyridin-2-ylmethoxy}-ethyl ester] | – | – | < 50% | ≥ 50%
– | NC(=O)c1cc(Nc2cnccn2)cc(-c2cccc3[nH]ccc23)c1 [3-(1H-Indol-4-yl)-5-(pyrazin-2-ylamino)-benzamide] | – | – | < 50% | ≥ 50%
– | O=C(Nc1cc(C(=O)c2cccnc2)cc(-c2cccc3[nH]ccc23)c1)OCc1ccccc1 [[3-(1H-Indol-4-yl)-5-(pyridine-3-carbonyl)-phenyl]-carbamic acid benzyl ester] | – | – | < 50% | ≥ 50%
6.00 to 7.00 | CCOc1ccc(-c2cc(NC(C)=O)cc(-c3cccc4[nH]ccc34)c2)cn1 [N-[3-(6-Ethoxy-pyridin-3-yl)-5-(1H-indol-4-yl)-phenyl]-acetamide] | – | < 50% | – | –
– | COc1cc(C(=O)c2cc(NC(C)=O)cc(-c3cccc4[nH]ccc34)c2)ccn1 [N-[3-(1H-Indol-4-yl)-5-(2-methoxy-pyridine-4-carbonyl)-phenyl]-acetamide] | – | – | ≥ 50% | ≥ 50%
– | CC(=O)Nc1cc(-c2cccc3[nH]ccc23)cc(S(=O)(=O)c2cccnc2)c1 [N-[3-(1H-Indol-4-yl)-5-(pyridine-3-sulfonyl)-phenyl]-acetamide] | – | – | < 50% | ≥ 50%
– | CCC(=O)Nc1cc(C(=O)c2cccnc2)cc(-c2cccc3[nH]ccc23)c1 [N-[3-(1H-Indol-4-yl)-5-(pyridine-3-carbonyl)-phenyl]-propionamide] | – | – | < 50% | ≥ 50%
– | CS(=O)(=O)Nc1cc(Nc2cccnc2)cc(-c2cccc3[nH]ccc23)c1 [N-[3-(1H-Indol-4-yl)-5-(pyridin-3-ylamino)-phenyl]-methanesulfonamide] | – | – | < 50% | ≥ 50%
– | CC(=O)Nc1cc(SCc2cccnc2)cc(-c2cccc3[nH]ccc23)c1 [N-[3-(1H-Indol-4-yl)-5-(pyridin-3-ylmethylsulfanyl)-phenyl]-acetamide] | – | – | < 50% | ≥ 50%
– | O=C(c1cccnc1)c1cc(-c2cccc3[nH]ccc23)cc(N2CCCC2=O)c1 [1-[3-(1H-Indol-4-yl)-5-(pyridine-3-carbonyl)-phenyl]-pyrrolidin-2-one] | – | – | < 50% | ≥ 50%
– | CS(=O)(=O)Nc1cc(C(=O)c2ccnc(Cl)c2)cc(-c2cccc3[nH]ccc23)c1 [N-[3-(2-Chloro-pyridine-4-carbonyl)-5-(1H-indol-4-yl)-phenyl]-methanesulfonamide] | – | – | ≥ 50% | ≥ 50%
– | N#Cc1cc2c(-c3cc(O)cc(Nc4cccnc4)c3)cccc2[nH]1 [4-[3-Hydroxy-5-(pyridin-3-ylamino)-phenyl]-1H-indole-2-carbonitrile] | – | – | ≥ 50% | < 50%
– | Cc1cc(C(=O)c2cc(NS(C)(=O)=O)cc(-c3cccc4[nH]ccc34)c2)cc(Cl)n1 [N-[3-(2-Chloro-6-methyl-pyridine-4-carbonyl)-5-(1H-indol-4-yl)-phenyl]-methanesulfonamide] | – | – | ≥ 50% | ≥ 50%
– | CS(=O)(=O)Nc1cc(C(=O)c2cccnc2)cc(-c2cccc3[nH]c(C#N)cc23)c1 [N-[3-(2-Cyano-1H-indol-4-yl)-5-(pyridine-3-carbonyl)-phenyl]-methanesulfonamide] | – | – | ≥ 50% | ≥ 50%
– | CC(=O)Nc1cc(C(=O)c2ccnc(Cl)c2)cc(-c2cccc3[nH]ccc23)c1 [N-[3-(2-Chloro-pyridine-4-carbonyl)-5-(1H-indol-4-yl)-phenyl]-acetamide] | – | – | ≥ 50% | ≥ 50%
